Data from patent US9994546B2, “Cyclopropylamines as LSD1 inhibitors” (Incyte Corporation, priority 2014, dated 2018).

target: LSD-1 enzyme (Homo sapiens (Human), UniProt O60341); experiment: LANCE LSD1/KDM1A demethylase assay (LSD1 histone demethylase biochemical assay); conditions: 1 nM LSD-1 enzyme, 1 hour preincubation at 25° C., 0.4 μM biotin-labeled Histone H3 peptide substrate
Procedure: LANCE LSD1/KDM1A demethylase assay—10 μL of 1 nM LSD-1 enzyme (ENZO BML-SE544-0050) in the assay buffer (50 mM Tris, pH 7.5, 0.01% Tween-20, 25 mM NaCl, 5 mM DTT) were preincubated for 1 hour at 25° C. with 0.8 μL compound/DMSO dotted in black 384 well polystyrene plates. […] After stopping the reactions plates were incubated for 30 minutes and read on a PHERAstar FS plate reader (BMG Labtech).

`CCS(=O)(=O)N1CC(CC#N)(N2CC(CN[C@@H]3C[C@H]3c3ccccc3)C2)C1` (relative stereo) [Example 15, (1′-(Ethylsulfonyl)-3-{[(trans-2-phenylcyclopropyl)amino]methyl}-1,3′-biazetidin-3′-yl)acetonitrile] and `CCS(=O)(=O)N1CC(CC#N)(N2CCC(CN[C@@H]3C[C@H]3c3ccccc3)CC2)C1` (relative stereo) [Example 31, [1-(Ethylsulfonyl)-3-(4-{[(trans-2-phenylcyclopropyl)amino]methyl}piperidin-1-yl)azetidin-3-yl]acetonitrile] cannot be ordered by IC50: ≤ 100 nM for the first, 100 to 500 nM for the second.

`N#CCC1(N2CC(CN[C@@H]3C[C@H]3c3ccccc3)C2)CCNCC1` (relative stereo) [Example 16, [4-(3-{[(trans-2-Phenylcyclopropyl)amino]methyl}azetidin-1-yl)piperidin-4-yl]acetonitrile] and `N#CCC1(N2CC(CN[C@@H]3C[C@H]3c3ccccc3)C2)CNC1` (relative stereo) [Example 26, (3-{[(trans-2-Phenylcyclopropyl)amino]methyl}-1,3′-biazetidin-3′-yl)acetonitrile] cannot be ordered by IC50: ≤ 100 nM for the first, ≤ 100 nM for the second.

`CN1CCC(CC#N)(N2CC(CN[C@@H]3C[C@H]3c3ccccc3)C2)CC1` (relative stereo) [Example 17, [1-Methyl-4-(3-{[(trans-2-phenylcyclopropyl)amino]methyl}azetidin-1-yl)piperidin-4-yl]acetonitrile] and `CC(=O)N1CCC(CC#N)(N2CC(CN[C@@H]3C[C@H]3c3ccccc3)C2)CC1` (relative stereo) [Example 18, [1-Acetyl-4-(3-{[(trans-2-phenylcyclopropyl)amino]methyl}azetidin-1-yl)piperidin-4-yl]acetonitrile] cannot be ordered by IC50: ≤ 100 nM for the first, ≤ 100 nM for the second.

`N#CCC1(N2CC(CN[C@@H]3C[C@H]3c3ccccc3)C2)CCN(C(=O)c2ccc(F)cc2)CC1` (relative stereo) [Example 19, [1-(4-Fluorobenzoyl)-4-(3-{[(trans-2-phenylcyclopropyl)amino]methyl}azetidin-1-yl)piperidin-4-yl]acetonitrile] and `N#CCC1(N2CC(CN[C@@H]3C[C@H]3c3ccccc3)C2)CCN(C(=O)Nc2ccc(F)cc2)CC1` (relative stereo) [Example 25, 4-(Cyanomethyl)-N-(4-fluorophenyl)-4-(3-{[(trans-2-phenylcyclopropyl)amino]methyl}azetidin-1-yl)piperidine-1-carboxamide] cannot be ordered by IC50: ≤ 100 nM for the first, ≤ 100 nM for the second.

`CS(=O)(=O)N1CCC(CC#N)(N2CC(CN[C@@H]3C[C@H]3c3ccccc3)C2)CC1` (relative stereo) [Example 20, [1-(Methylsulfonyl)-4-(3-{[(trans-2-phenylcyclopropyl)amino]methyl}azetidin-1-yl)piperidin-4-yl]acetonitrile] and `N#CCC1(N2CC(CN[C@@H]3C[C@H]3c3ccccc3)C2)CCN(S(=O)(=O)c2ccccc2)CC1` (relative stereo) [Example 21, [4-(3-{[(trans-2-Phenylcyclopropyl)amino]methyl}azetidin-1-yl)-1-(phenylsulfonyl)piperidin-4-yl]acetonitrile] cannot be ordered by IC50: ≤ 100 nM for the first, ≤ 100 nM for the second.

`CCOC(=O)N1CCC(CC#N)(N2CC(CN[C@@H]3C[C@H]3c3ccccc3)C2)CC1` (relative stereo) [Example 22, Ethyl 4-(cyanomethyl)-4-(3-{[(trans-2-phenylcyclopropyl)amino]methyl}azetidin-1-yl)piperidine-1-carboxylate] and `CN(C)C(=O)N1CCC(CC#N)(N2CC(CN[C@@H]3C[C@H]3c3ccccc3)C2)CC1` (relative stereo) [Example 23, 4-(Cyanomethyl)-N,N-dimethyl-4-(3-{[(trans-2-phenylcyclopropyl)amino]methyl}azetidin-1-yl)piperidine-1-carboxamide] cannot be ordered by IC50: ≤ 100 nM for the first, ≤ 100 nM for the second.

`CC(C)NC(=O)N1CCC(CC#N)(N2CC(CN[C@@H]3C[C@H]3c3ccccc3)C2)CC1` (relative stereo) [Example 24, 4-(Cyanomethyl)-N-isopropyl-4-(3-{[(trans-2-phenylcyclopropyl)amino]methyl}azetidin-1-yl)piperidine-1-carboxamide] and `N#CCC1(N2CCC(CN[C@@H]3C[C@H]3c3ccccc3)CC2)CCC1` (relative stereo) [Example 32, [1-(4-{[(trans-2-Phenylcyclopropyl)amino]methyl}piperidin-1-yl)cyclobutyl]acetonitrile] cannot be ordered by IC50: ≤ 100 nM for the first, ≤ 100 nM for the second.

`CN1CCC(N2CC(CN[C@@H]3C[C@H]3c3ccccc3)C2)CC1` (relative stereo) [Example 28, N-{[1-(1-Methylpiperidin-4-yl)azetidin-3-yl]methyl}-trans-2-phenylcyclopropanamine] and `c1ccc([C@@H]2C[C@H]2NCC2CN(C3CCN(c4ccccc4)CC3)C2)cc1` (relative stereo) [Example 29, Trans-2-phenyl-N-{[1-(1-phenylpiperidin-4-yl)azetidin-3-yl]methyl}cyclopropanamine] cannot be ordered by IC50: ≤ 100 nM for the first, ≤ 100 nM for the second.

`N#CCC1(N2CCC(CN[C@@H]3C[C@H]3c3ccccc3)CC2)CNC1` (relative stereo) [Example 33, [3-(4-{[(trans-2-Phenylcyclopropyl)amino]methyl}piperidin-1-yl)azetidin-3-yl]acetonitrile] and `COC(=O)N1CC(CC#N)(N2CCC(CN[C@@H]3C[C@H]3c3ccccc3)CC2)C1` (relative stereo) [Example 41, Methyl 3-(cyanomethyl)-3-(4-{[(trans-2-phenylcyclopropyl)amino]methyl}piperidin-1-yl)azetidine-1-carboxylate] cannot be ordered by IC50: ≤ 100 nM for the first, ≤ 100 nM for the second.

`N#CCC1(N2CCC(CN[C@@H]3C[C@H]3c3ccccc3)CC2)CN(c2ncccc2C#N)C1` (relative stereo) [Example 34, 2-[3-(Cyanomethyl)-3-(4-{[(trans-2-phenylcyclopropyl)amino]methyl}piperidin-1-yl)azetidin-1-yl]nicotinonitrile] and `N#CCC1(N2CCC(CN[C@@H]3C[C@H]3c3ccccc3)CC2)CN(c2ccccc2C#N)C1` (relative stereo) [Example 39, 2-[3-(Cyanomethyl)-3-(4-{[(trans-2-phenylcyclopropyl)amino]methyl}piperidin-1-yl)azetidin-1-yl]benzonitrile] cannot be ordered by IC50: ≤ 100 nM for the first, ≤ 100 nM for the second.

`CC(C)NC(=O)c1cc(F)c(N2CC(CC#N)(N3CCC(CN[C@@H]4C[C@H]4c4ccccc4)CC3)C2)cc1F` (relative stereo) [Example 35, 4-[3-(Cyanomethyl)-3-(4-{[(trans-2-phenylcyclopropyl)amino]methyl}piperidin-1-yl)azetidin-1-yl]-2,5-difluoro-N-isopropylbenzamide] and `N#CCC1(N2CCC(CN[C@@H]3C[C@H]3c3ccccc3)CC2)CN(C(=O)c2cc(F)cc(F)c2)C1` (relative stereo) [Example 44, [1-(3,5-Difluorobenzoyl)-3-(4-{[(trans-2-phenylcyclopropyl)amino]methyl}piperidin-1-yl)azetidin-3-yl]acetonitrile] cannot be ordered by IC50: ≤ 100 nM for the first, ≤ 100 nM for the second.

`N#CCC1(N2CCC(CN[C@@H]3C[C@H]3c3ccccc3)CC2)CN(c2ncccc2C(F)(F)F)C1` (relative stereo) [Example 36, {3-(4-{[(trans-2-Phenylcyclopropyl)amino]methyl}piperidin-1-yl)-1-[3-(trifluoromethyl)pyridin-2-yl]azetidin-3-yl}acetonitrile] and `N#CCC1(N2CCC(CN[C@@H]3C[C@H]3c3ccccc3)CC2)CN(c2ccc(C(F)(F)F)cn2)C1` (relative stereo) [Example 37, {3-(4-{[(trans-2-Phenylcyclopropyl)amino]methyl}piperidin-1-yl)-1-[5-(trifluoromethyl)pyridin-2-yl]azetidin-3-yl}acetonitrile] cannot be ordered by IC50: ≤ 100 nM for the first, ≤ 100 nM for the second.

`N#CCC1(N2CCC(CN[C@@H]3C[C@H]3c3ccccc3)CC2)CN(c2cccc(Cl)c2C#N)C1` (relative stereo) [Example 38, 2-Chloro-6-[3-(cyanomethyl)-3-(4-{[(trans-2-phenylcyclopropyl)amino]methyl}piperidin-1-yl)azetidin-1-yl]benzonitrile] and `N#CCC1(N2CCC(CN[C@@H]3C[C@H]3c3ccccc3)CC2)CN(c2ccc(C#N)cc2)C1` (relative stereo) [Example 40, 4-[3-(Cyanomethyl)-3-(4-{[(trans-2-phenylcyclopropyl)amino]methyl}piperidin-1-yl)azetidin-1-yl]benzonitrile] cannot be ordered by IC50: ≤ 100 nM for the first, ≤ 100 nM for the second.

`N#CCC1(N2CCC(CN[C@@H]3C[C@H]3c3ccccc3)CC2)CN(C(=O)Nc2ccc(F)cc2F)C1` (relative stereo) [Example 42, 3-(Cyanomethyl)-N-(2,4-difluorophenyl)-3-(4-{[(trans-2-phenylcyclopropyl)amino]methyl}piperidin-1-yl)azetidine-1-carboxamide] and `N#CCC1(N2CCC(CN[C@@H]3C[C@H]3c3ccccc3)CC2)CN(C(=O)Nc2cccc(Cl)c2F)C1` (relative stereo) [Example 43, N-(3-Chloro-2-fluorophenyl)-3-(cyanomethyl)-3-(4-{[(trans-2-phenylcyclopropyl)amino]methyl}piperidin-1-yl)azetidine-1-carboxamide] cannot be ordered by IC50: ≤ 100 nM for the first, ≤ 100 nM for the second.

`N#CCC1(N2CCC(CN[C@@H]3C[C@H]3c3ccccc3)CC2)CN(C(=O)c2ccccc2)C1` (relative stereo) [Example 45, [1-Benzoyl-3-(4-{[(trans-2-phenylcyclopropyl)amino]methyl}piperidin-1-yl)azetidin-3-yl]acetonitrile] and `N#CCC1(N2CCC(CN[C@@H]3C[C@H]3c3ccccc3)CC2)CN(C(=O)c2ccccc2F)C1` (relative stereo) [Example 46, [1-(2-Fluorobenzoyl)-3-(4-{[(trans-2-phenylcyclopropyl)amino]methyl}piperidin-1-yl)azetidin-3-yl]acetonitrile] cannot be ordered by IC50: ≤ 100 nM for the first, ≤ 100 nM for the second.
